Holding throughout (type): in vitro ADME
The target of data set [1] is T1, OAT1 (Homo sapiens, UniProt Q4U2R8).
T1 sequence (Q4U2R8 1-563): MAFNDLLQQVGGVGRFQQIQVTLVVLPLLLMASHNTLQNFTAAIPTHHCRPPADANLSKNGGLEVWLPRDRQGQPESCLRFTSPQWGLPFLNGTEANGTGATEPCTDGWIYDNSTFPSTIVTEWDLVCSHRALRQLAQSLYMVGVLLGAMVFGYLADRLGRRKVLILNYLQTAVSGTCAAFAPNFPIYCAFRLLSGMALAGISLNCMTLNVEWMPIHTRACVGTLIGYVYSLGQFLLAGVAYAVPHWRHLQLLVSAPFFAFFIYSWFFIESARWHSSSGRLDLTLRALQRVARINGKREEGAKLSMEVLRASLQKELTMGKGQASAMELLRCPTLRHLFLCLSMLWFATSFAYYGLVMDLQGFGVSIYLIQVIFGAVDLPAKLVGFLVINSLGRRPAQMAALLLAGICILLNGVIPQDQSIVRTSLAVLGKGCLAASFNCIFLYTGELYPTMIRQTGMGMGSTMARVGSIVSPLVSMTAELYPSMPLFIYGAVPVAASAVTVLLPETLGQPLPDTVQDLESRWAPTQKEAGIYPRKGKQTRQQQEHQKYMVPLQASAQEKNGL
Kind of data set: [14C]-lesinurad uptake, substrate test, OAT1 oocytes.

For data set [2], the target named is T2, OCT1 (Homo sapiens, UniProt O15245).
T2 sequence (O15245 1-554): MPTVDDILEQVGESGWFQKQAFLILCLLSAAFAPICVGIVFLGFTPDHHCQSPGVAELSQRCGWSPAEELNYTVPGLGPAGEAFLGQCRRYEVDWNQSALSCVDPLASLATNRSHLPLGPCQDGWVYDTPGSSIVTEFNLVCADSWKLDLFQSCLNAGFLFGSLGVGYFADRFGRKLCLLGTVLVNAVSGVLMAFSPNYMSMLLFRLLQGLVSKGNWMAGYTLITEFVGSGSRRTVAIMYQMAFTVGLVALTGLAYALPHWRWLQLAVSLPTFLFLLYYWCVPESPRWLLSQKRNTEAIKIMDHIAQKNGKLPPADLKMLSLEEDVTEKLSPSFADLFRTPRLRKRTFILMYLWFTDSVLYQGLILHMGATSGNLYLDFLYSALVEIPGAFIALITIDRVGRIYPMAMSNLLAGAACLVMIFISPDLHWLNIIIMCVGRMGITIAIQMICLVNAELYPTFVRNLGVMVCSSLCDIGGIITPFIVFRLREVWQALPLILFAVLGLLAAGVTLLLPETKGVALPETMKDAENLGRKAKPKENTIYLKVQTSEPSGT
The experiment in a line: [14C]-lesinurad uptake, substrate test, hOCT1 MDCK-II cells.

Data set [3] addresses T3, OAT3 (Homo sapiens, UniProt Q8TCC7).
T3 sequence (Q8TCC7 1-542): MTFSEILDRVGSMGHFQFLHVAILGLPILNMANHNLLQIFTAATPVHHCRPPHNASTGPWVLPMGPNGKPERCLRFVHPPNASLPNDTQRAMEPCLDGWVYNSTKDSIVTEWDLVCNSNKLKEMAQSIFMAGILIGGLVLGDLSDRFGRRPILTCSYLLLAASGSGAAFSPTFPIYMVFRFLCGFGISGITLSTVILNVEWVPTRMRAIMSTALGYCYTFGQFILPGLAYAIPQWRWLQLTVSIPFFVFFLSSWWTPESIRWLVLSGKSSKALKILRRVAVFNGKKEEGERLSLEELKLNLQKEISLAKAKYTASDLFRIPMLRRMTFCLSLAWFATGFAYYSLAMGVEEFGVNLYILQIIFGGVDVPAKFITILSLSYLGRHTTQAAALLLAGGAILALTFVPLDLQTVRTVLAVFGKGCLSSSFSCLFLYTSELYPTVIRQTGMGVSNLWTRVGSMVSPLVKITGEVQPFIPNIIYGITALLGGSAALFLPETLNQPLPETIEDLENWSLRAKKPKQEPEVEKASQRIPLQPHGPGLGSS
Kind of data set: [14C]-lesinurad uptake, substrate test, OAT3 oocytes.

Molecules are shown by their SMILES.

With `O=C(O)CSc1nnc(Br)n1-c1ccc(C2CC2)c2ccccc12` [lesinurad], the Lesinurad as substrate result in data set [1] is recorded as “substrate”; in data set [2] it was “weak substrate”; in data set [3], “substrate”.

(Values after publication PMC4891385 (Clinical Drug Investigation, 2016).)
